Data set [1] concerns the target T1, STAT6 (Homo sapiens, UniProt P42226).
T1 sequence (P42226 1-847): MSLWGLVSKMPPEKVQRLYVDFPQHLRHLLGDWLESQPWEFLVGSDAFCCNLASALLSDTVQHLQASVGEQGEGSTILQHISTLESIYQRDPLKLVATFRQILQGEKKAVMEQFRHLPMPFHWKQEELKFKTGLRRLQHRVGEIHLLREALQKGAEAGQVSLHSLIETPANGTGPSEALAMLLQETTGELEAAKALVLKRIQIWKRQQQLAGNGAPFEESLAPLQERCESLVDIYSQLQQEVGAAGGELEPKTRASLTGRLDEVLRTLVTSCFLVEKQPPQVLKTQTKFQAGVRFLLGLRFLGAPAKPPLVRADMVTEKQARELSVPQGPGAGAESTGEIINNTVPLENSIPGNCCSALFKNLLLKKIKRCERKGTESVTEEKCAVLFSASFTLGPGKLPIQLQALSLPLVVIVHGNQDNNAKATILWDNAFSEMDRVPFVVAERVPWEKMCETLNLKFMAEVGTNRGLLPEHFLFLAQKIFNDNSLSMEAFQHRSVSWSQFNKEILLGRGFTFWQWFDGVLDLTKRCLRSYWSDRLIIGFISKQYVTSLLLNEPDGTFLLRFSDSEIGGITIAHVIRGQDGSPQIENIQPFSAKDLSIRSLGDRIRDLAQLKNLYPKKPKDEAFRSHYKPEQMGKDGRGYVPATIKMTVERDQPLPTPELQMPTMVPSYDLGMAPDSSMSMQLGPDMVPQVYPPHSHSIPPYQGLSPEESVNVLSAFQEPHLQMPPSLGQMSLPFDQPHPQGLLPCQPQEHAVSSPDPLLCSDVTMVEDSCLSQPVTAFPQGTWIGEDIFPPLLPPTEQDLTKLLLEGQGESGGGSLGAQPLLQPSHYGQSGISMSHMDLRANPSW
In words: Competitive fluorescence polarization (FP) binding assay, STAT6. How it is done:
Fluorescence polarization assays: Competitive binding assays based on fluorescence polarization were carried out essentially as previously described.[[4a]] Unless stated otherwise, final concentrations of the buffer components were: 10 mM Tris (pH 8.0), 50 mM NaCl, 1 mM EDTA, 1 mM DTT, 0.1 % (v/v) Nonidet P‐40 substitute, and 2 % DMSO. Proteins were used at concentrations which reflect the Kd values of the interactions between the fluoropeptide and the protein preparations. Protein concentrations used for activity analysis of compound 5 were 91 nM for STAT1, 107 nM for STAT3, 28 nM for STAT4, 122 nM for STAT5a, 56 nM for STAT5b and 101 nM for STAT6. Protein concentrations used for activity analysis of AC‐4‐130 were 103 nM for STAT5a and 62 nM for STAT5b. […] Final concentration of all fluorescent‐labelled peptides was 10 nM. The following peptides were used in assays: 5‐carboxyfluorescein‐GpYDKPHVL for STAT1; 5‐carboxyfluorescein‐GpYLPQTV‐NH2 for STAT3; 5‐carboxyfluorescein‐GpYLPQNID for STAT4; 5‐carboxyfluorescein‐GpYLVLDKW for STAT5a/5b, and 5‐carboxyfluorescein‐GpYVPWQDLI for STAT6. Protein and test compounds were incubated for 1 h prior to addition of the fluorescein‐labeled peptide. Fluorescence polarization was measured after another 60 min using an Infinite F500 plate reader (Tecan). IC50 values were converted to Ki‐values using the published equation.[13]

The nature of data set [2]: Solubility as observed during synthesis / stock preparation. It counts as physicochemical. As to conditions: DMSO stock solution.

For `O=C(CNc1ccc(C(=O)Nc2ccc(Oc3ccccc3)cc2)cc1)NCc1cc(C(F)(F)P(=O)(O)O)c(F)c(C(F)(F)P(=O)(O)O)c1` [compound 10], in data set [1] (10 % DMSO), the IC50 (usually the midpoint of a concentration-inhibition curve) was determined as 61.3 ± 2.7 µM. Moreover, the Ki – broadly, a dissociation constant, usually derived from enzyme kinetics or from competition with a known ligand – in data set [1] (Ki calculated from IC50, 10 % DMSO) is 30.1 ± 1.3 µM. Moreover, the “solubility in the DMSO stock solution” value in data set [2] is “limited solubility”.

In the case of `O=C(CNc1ccc(C(=O)Nc2ccc(Oc3ccccc3)cc2)cc1)NCc1cc(OP(=O)(O)O)cc(OP(=O)(O)O)c1` [compound 5], in data set [1] (100 µM, 2 % DMSO), the inhibition – broadly, the change of the read-out against control, counted positive when it falls – at 100 µM was determined as 48 ± 1%.

The record behind these values is paper PMC10099813, “Stafiba: A STAT5‐Selective Small‐Molecule Inhibitor” (Chembiochem, 2022).
